Results as given in patent EP1140984B1, “SELECTIVE INHIBITORS OF MMP-12” (Aventis Pharmaceuticals Inc., priority 1998, dated 2000).
Counter-ions that a name gives are not always drawn.

What was measured:
MMP-12 = target: T1, MMP-12 (Homo sapiens, UniProt P39900); assay: Determination of inhibition constant (Ki) for MMP-12 (macrophage metalloelastase), fluorogenic substrate assay, cuvette or microtiter plate; assay type: biochemical; conditions: substrate Mca-Pro-Leu-Gly-Leu-Dpa-Ala-Arg-NH2, 25°C, pH 7.6, [MMP-12] = 2 nM
T1 construct: made in house
T1 sequence (P39900 106-263 limits assumed): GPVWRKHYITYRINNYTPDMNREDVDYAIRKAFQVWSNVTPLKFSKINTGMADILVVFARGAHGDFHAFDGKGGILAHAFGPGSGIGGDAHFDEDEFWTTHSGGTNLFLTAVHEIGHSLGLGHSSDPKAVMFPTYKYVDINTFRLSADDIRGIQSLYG
Method: MMP-12 (EC 3.4.24.65) was cloned, expressed and purified according to Shapiro, S.D. et al., J Biol. Chem. 268, 23824-23829 (1993). […] Aliquots of MMP-12 were stored at -70C.
The potency of inhibitors of MMP-12 was measured using either quartz cuvettes or microtiter plates. The activity of MMP-12 was measured using a fluorogenic substrate, Mca-Pro-Leu-Gly-Leu-Dpa-Ala-Arg-NH2, Knight, C.G. et al., FEBS Lett. 296, 263-266 (1992), at 25°C in an assay buffer containing 50 mM Tris, pH 7.6, 0.2 M sodium chloride, 50 mM calcium chloride, and 0.02% Brij-35. The increase in fluorescence due to cleavage of Gly-Leu peptide bond by MMP-12 was monitored with a Perkin-Elmer LS50B Fluorimeter (λex 328 nm, λem 393 nm, excitation slit 2.5, emission slit 10) for the cuvette assay and with a Molecular Devices Fmax fluorescence plate reader (λex 320 nm, λem 405 nm) for the microtiter plate assay. Substrate and inhibitor stock solutions were made in N,N-dimethylformamide (DMF) and 0.1% HCl-DMF, respectively.
Ki values were determined using the cuvette method by preparing a series of intermediate inhibitors solutions in 0.1% HCl-DMF and mixing the inhibitor with substrate (final concentration 2 µM) in a quartz cuvette containing 2 ml of assay buffer. MMP-12 was added to start the reaction at a concentration of 2 nM and progress curves were generated. For routine measurement of a Ki value for a reversible competitive inhibitor, the initial rates in the presence of at least four inhibitor concentrations (two concentrations above and two concentrations below the Ki) were measured [S] = 2 µM (<<Km) and [MMP-12] = 2 nM. Under these conditions, the measured Ki,app is close to the true Ki.
Ki values were determined using the microtiter plate method in a manner similar to that described for the cuvette method with some modifications. Four different inhibitor concentrations (50 µl in assay buffer) of each compound were added to separate wells of a microtiter plate and substrate was added (100 µl) to get a final concentration of […]. MMP-12 was added to a final concentration of 2 nM (50 µl) to start the reaction. Cleavage of substrate was recorded every 30 seconds for 30 minutes and progress curves were generated.
The Ki for a competitive inhibitor was calculated using: Vo/Vi = (1+[I]/Ki,app) and Ki = Ki,app/(1+[S]/Km), where Vo is the initial rate in the absence of inhibitor, Vi is the initial rate in the presence of inhibitor at the concentration of [I], [S] is the substrate concentration, and Km is the Michaelis constant. If slow binding is observed (i.e. if the approach to the binding equilibium is slow), the final steady-state rate rather than the initial rate is taken as Vi.

MMP-1 = target: T2, MMP-1 (Homo sapiens, UniProt P03956); assay: Determination of inhibition constant (Ki) for MMP-1, fluorogenic substrate assay; assay type: biochemical; conditions: substrate Mca-Pro-Leu-Gly-Leu-Dpa-Ala-Arg-NH2, 37°C, pH 7.6, [S] = 1 µM, [MMP-1] = 0.8 nM
T2 construct: The active MMP-1 was obtained by treatment of proMMP-1 with trypsin; endogenous in cells; host or cells: human rheumatoid synovial fibroblasts stimulated with macrophage-conditioned medium
T2 sequence (P03956 100-469): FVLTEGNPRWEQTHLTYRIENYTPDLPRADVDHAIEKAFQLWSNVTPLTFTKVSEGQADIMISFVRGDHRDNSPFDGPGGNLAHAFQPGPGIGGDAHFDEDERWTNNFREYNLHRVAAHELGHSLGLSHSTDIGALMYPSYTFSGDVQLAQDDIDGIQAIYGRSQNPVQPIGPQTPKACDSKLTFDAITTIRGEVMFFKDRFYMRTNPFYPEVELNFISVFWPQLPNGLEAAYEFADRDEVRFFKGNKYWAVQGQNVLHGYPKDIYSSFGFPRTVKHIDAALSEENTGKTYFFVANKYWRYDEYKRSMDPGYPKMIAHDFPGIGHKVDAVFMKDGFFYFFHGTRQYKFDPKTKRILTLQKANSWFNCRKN
Method: ProMMP-1 (EC 3.4.24.7; interstitial collagenase) was purified from culture medium of human rheumatoid synovial fibroblasts stimulated with macrophage-conditioned medium according to Okada, Y. et al., J. Biol. Chem. 261, 14245-14255 (1986). The active MMP-1 was obtained by treatment of proMMP-1 with trypsin (5 µg/mL) at 37°C for 30 minutes, followed by addition of soybean trypsin inhibitor (50 µg/mL).
The activated MMP-1 is assayed using a fluorogenic substrate, Mca-Pro-Leu-Gly-Leu-Dpa-Ala-Arg-NH2, Knight, C.G. et al., FEBS Lett. 296, 263-266 (1992), at 37°C in 2.0 mL of assay buffer containing 50 mM Tris, pH 7.6, 0.2 M sodium chloride, 50 mM calcium chloride, and 0.02% Brij-35. The increase in fluorescence due to cleavage of Gly-Leu peptide bond by MMP-3 was monitored with Perkin-Elmer LS50B Fluorimeter (λex 328 nm, λem 393 nm, excitation slit 2.5, emission slit 10). Substrate and inhibitor stock solutions were made in DMF. For determination of Ki values for MMP-1 inhibitors, a series of intermediate inhibitor solutions were prepared in DMF and 1 or 2 µL of the diluted inhibitor solution was mixed with 1 µL of 2 mM substrate solution in DMF in a quartz cuvette containing 2 mL of assay buffer. The enzyme (10 µL of 0.2 µM MMP-3 dilution in assay buffer) was added at the last to start the reaction. For routine measurement of a Ki value for a reversible, competitive inhibitor, the initial rates in the presence of at least four inhibitor concentrations (two concentrations above K; and two concentrations below Ki) were measured using [S] = 1 µM (<< Km) and [MMP-1] = 0.8 nM. Under these conditions, the measured Ki, app is close to true Ki.
The Ki for a competitive inhibitor is calculated using: v0/vi = (1 + [I]/Ki,app) and Ki = Ki,app/(1 + [S]/Km), where v0 is the initial rate in the absence of inhibitor, vi is the initial rate in the presence of inhibitor at the concentration of [I], [S] is the substrate concentration, and Km is the Michaelis constant. If slow binding is observed (i.e. if the approach to the binding equilibrium is slow), the final steady-state rate rather than the initial rate is taken as vi.

Row | Compound | Ki (MMP-12) | Ki (MMP-1)
1 | CC(C)C[C@H](NC(=O)C(S)C(C)C)C(=O)N[C@@H](Cc1ccccc1)C(=O)O (stereo in doubt) [Example 3, (S)-2-Mercapto-3-methylbutyroyl-(L)-leucyl-(L)-phenylalanine] | 14 nM | 518 nM
2 | CSCC[C@H](NC(=O)C(S)C(C)C)C(=O)N[C@@H](Cc1ccccc1)C(=O)O (stereo in doubt) [Example 4, (S)-2-Mercapto-3-methylbutyroyl-(L)-methionyl-(L)-phenylalanine] | 14 nM | 153 nM
3 | CC(C)C(S)C(=O)N[C@@H](CCCCN)C(=O)N[C@@H](Cc1ccccc1)C(=O)O (stereo in doubt) [Example 5, (S)-2-Mercapto-3-methylbutyroyl-(L)-lysyl-(L)-phenylalanine trifluoroacetic acid salt] | 151 nM | 3910 nM
4 | CCCC(S)C(=O)N[C@@H](CCc1ccccc1)C(=O)N[C@@H](Cc1ccccc1)C(=O)O (some centres unmarked) [Example 1, 2-Mercapto-pentanoyl-(L)-homo-phenylalanyl-(L)-phenylalanine] | 13 nM | 5800 nM
5 | CC(C)[C@H](S)C(=O)N[C@@H](CCc1ccccc1)C(=O)N[C@@H](Cc1ccccc1)C(=O)O [Example 2, (S)-2-Mercapto-3-methylbutyroyl-(L)-homo-phenylalanyl-(L)-phenylalanine] | 4 nM | 5110 nM
6 | CCCC(S)C(=O)N[C@@H](CCc1ccccc1)C(=O)N[C@@H](Cc1ccccc1)C(=O)NC (stereo partly drawn) [Example 6, (S)-2-Mercaptopentanoyl-(L)-homo-phenylalanyl-(L)-phenylalanine N-methyl amide] | 14 nM | 360 nM
7 | CNC(=O)[C@H](Cc1ccccc1)NC(=O)[C@H](CCc1ccccc1)NC(=O)[C@@H](S)C(C)C [Example 7, (S)-2-Mercapto-3-methylbutyroyl-(L)-homo-phenylalanyl-(L)-phenylalanine N-methyl amide] | 0.6 nM | 465 nM
